Species: Rattus norvegicus
Assay: Open TG-GATES - Regimen: Daily Repeat
Type: toxicity, organism-based, Sprague-Dawley
Parameters: regimen Daily Repeat, gender Male, age 6 weeks
Details: in vivo, po, route gavage; for APTT / Bas / Eos / Fbg / Hb / Ht / Lym / MCH / MCHC / MCV / Mono / Neu / PT / Plat / RBC / Ret / WBC: tissue Blood; for KIDNEY_L / KIDNEY_R / KIDNEY_TOTAL: tissue Kidney; for LIVER: tissue Liver; for A/G / ALP / ALT / AST / BUN / CRE / Ca / Cl / DBIL / GLC / IP / K / LDH / Na / PL / RALB / TBIL / TC / TG / TP / gamma-GTP: tissue Plasma
[1] = 0 mg/kg, 72 h, dose level Control, time 3 day
[2] = 0 mg/kg, […], dose level Control, time 7 day
[3] = 0 mg/kg, […], dose level Control, time 14 day
[4] = 0 mg/kg, […], dose level Control, time 28 day
[5] = 400 mg/kg, 72 h, dose level Low, time 3 day
[6] = 400 mg/kg, […], dose level Low, time 7 day
[7] = 400 mg/kg, […], dose level Low, time 14 day
[8] = 400 mg/kg, […], dose level Low, time 28 day

## CCO [ALCOHOL]
[1]
  TERMINAL_BW: 232.9 g
  APTT: 17.2 s
  Bas: 0%
  Eos: 1%
  Fbg: 205.6 mg/dL
  Hb: 14.1 g/dL
  Ht: 41.9%
  Lym: 77%
  MCH: 21.5 pg
  MCHC: 33.7%
  MCV: 63.8 fL
  Mono: 6%
  Neu: 16%
  PT: 11 s
  Plat: 112.5 x10_4/uL
  RBC: 656.4 x10_4/ul
  Ret: 6.7%
  WBC: 82.3 x10_2/uL
  KIDNEY_L: 1 g
  KIDNEY_R: 1 g
  KIDNEY_TOTAL: 2 g
  LIVER: 11.2 g
  A/G: 2.2
  ALP: 935.2 IU/L
  ALT: 39.6 IU/L
  AST: 61.8 IU/L
  BUN: 19.6 mg/dL
  CRE: 0.6 mg/dL
  Ca: 10.9 mg/dL
  Cl: 104.2 meq/L
  DBIL: 0.04 mg/dL
  GLC: 210.6 mg/dL
  IP: 8.7 mg/dL
  K: 4.6 meq/L
  LDH: 75.8 IU/L
  Na: 141 meq/L
  PL: 160.6 mg/dL
  RALB: 3.9 g/dL
  TBIL: 0.3 mg/dL
  TC: 83.8 mg/dL
  TG: 101 mg/dL
  TP: 5.7 g/dL
  gamma-GTP: 1.2 IU/L
[2]
  TERMINAL_BW: 263.1 g
  APTT: 17 s
  Bas: 0%
  Eos: 1.2%
  Fbg: 212.6 mg/dL
  Hb: 14.2 g/dL
  Ht: 42.2%
  Lym: 84.2%
  MCH: 20.7 pg
  MCHC: 33.7%
  MCV: 61.5 fL
  Mono: 4%
  Neu: 10.6%
  PT: 11.1 s
  Plat: 127.1 x10_4/uL
  RBC: 687.8 x10_4/ul
  Ret: 5.2%
  WBC: 114.9 x10_2/uL
  KIDNEY_L: 1.1 g
  KIDNEY_R: 1.2 g
  KIDNEY_TOTAL: 2.3 g
  LIVER: 11.9 g
  A/G: 2.2
  ALP: 783 IU/L
  ALT: 33.6 IU/L
  AST: 62 IU/L
  BUN: 20.4 mg/dL
  CRE: 0.5 mg/dL
  Ca: 10.4 mg/dL
  Cl: 105.6 meq/L
  DBIL: 0.006 mg/dL
  GLC: 197.8 mg/dL
  IP: 7.5 mg/dL
  K: 4.7 meq/L
  LDH: 81.2 IU/L
  Na: 141.4 meq/L
  PL: 143.6 mg/dL
  RALB: 4 g/dL
  TBIL: 0.4 mg/dL
  TC: 71.4 mg/dL
  TG: 108 mg/dL
  TP: 5.7 g/dL
  gamma-GTP: 0.8 IU/L
[3]
  TERMINAL_BW: 302.6 g
  APTT: 19.1 s
  Bas: 0%
  Eos: 1%
  Fbg: 211.2 mg/dL
  Hb: 15.2 g/dL
  Ht: 44.7%
  Lym: 81.4%
  MCH: 20.3 pg
  MCHC: 33.9%
  MCV: 59.9 fL
  Mono: 4.2%
  Neu: 13.4%
  PT: 11.4 s
  Plat: 110 x10_4/uL
  RBC: 746.4 x10_4/ul
  Ret: 4.3%
  WBC: 102.7 x10_2/uL
  KIDNEY_L: 1.2 g
  KIDNEY_R: 1.2 g
  KIDNEY_TOTAL: 2.4 g
  LIVER: 13.2 g
  A/G: 1.9
  ALP: 678.2 IU/L
  ALT: 30 IU/L
  AST: 61.8 IU/L
  BUN: 19 mg/dL
  CRE: 0.5 mg/dL
  Ca: 10.6 mg/dL
  Cl: 105.6 meq/L
  DBIL: 0.028 mg/dL
  GLC: 204.6 mg/dL
  IP: 7.3 mg/dL
  K: 4.4 meq/L
  LDH: 80.2 IU/L
  Na: 142.6 meq/L
  PL: 138.6 mg/dL
  RALB: 3.8 g/dL
  TBIL: 0.4 mg/dL
  TC: 64.4 mg/dL
  TG: 120.6 mg/dL
  TP: 5.9 g/dL
  gamma-GTP: 0.6 IU/L
[4]
  TERMINAL_BW: 359.3 g
  APTT: 17 s
  Bas: 0%
  Eos: 1.6%
  Fbg: 215.6 mg/dL
  Hb: 15.4 g/dL
  Ht: 45.5%
  Lym: 82%
  MCH: 19.1 pg
  MCHC: 33.9%
  MCV: 56.4 fL
  Mono: 5.4%
  Neu: 11%
  PT: 11.2 s
  Plat: 114.3 x10_4/uL
  RBC: 807 x10_4/ul
  Ret: 8%
  WBC: 105.1 x10_2/uL
  KIDNEY_L: 1.3 g
  KIDNEY_R: 1.3 g
  KIDNEY_TOTAL: 2.6 g
  LIVER: 13.9 g
  A/G: 1.5
  ALP: 606.4 IU/L
  ALT: 32 IU/L
  AST: 61.2 IU/L
  BUN: 20.4 mg/dL
  CRE: 0.6 mg/dL
  Ca: 10.5 mg/dL
  Cl: 107 meq/L
  DBIL: 0 mg/dL
  GLC: 219.2 mg/dL
  IP: 6.1 mg/dL
  K: 4.3 meq/L
  LDH: 81.2 IU/L
  Na: 140.8 meq/L
  PL: 148 mg/dL
  RALB: 3.7 g/dL
  TBIL: 0.2 mg/dL
  TC: 76.2 mg/dL
  TG: 148.8 mg/dL
  TP: 6.1 g/dL
  gamma-GTP: 1.6 IU/L
[5]
  TERMINAL_BW: 236 g
  APTT: 17.7 s
  Bas: 0%
  Eos: 1%
  Fbg: 209.2 mg/dL
  Hb: 13.4 g/dL
  Ht: 39.9%
  Lym: 73.4%
  MCH: 21.9 pg
  MCHC: 33.7%
  MCV: 65 fL
  Mono: 8.4%
  Neu: 17%
  PT: 11.1 s
  Plat: 134.3 x10_4/uL
  RBC: 614.8 x10_4/ul
  Ret: 7.6%
  WBC: 100.6 x10_2/uL
  KIDNEY_L: 1 g
  KIDNEY_R: 1.1 g
  KIDNEY_TOTAL: 2.1 g
  LIVER: 11.5 g
  A/G: 2.3
  ALP: 965.4 IU/L
  ALT: 33 IU/L
  AST: 63.8 IU/L
  BUN: 17.2 mg/dL
  CRE: 0.5 mg/dL
  Ca: 11.1 mg/dL
  Cl: 104.4 meq/L
  DBIL: 0.022 mg/dL
  GLC: 198 mg/dL
  IP: 7.9 mg/dL
  K: 4.5 meq/L
  LDH: 103.4 IU/L
  Na: 140.6 meq/L
  PL: 140.6 mg/dL
  RALB: 4 g/dL
  TBIL: 0.3 mg/dL
  TC: 73 mg/dL
  TG: 82.8 mg/dL
  TP: 5.7 g/dL
  gamma-GTP: 2.4 IU/L
[6]
  TERMINAL_BW: 263.9 g
  APTT: 17.6 s
  Bas: 0%
  Eos: 0.8%
  Fbg: 219.6 mg/dL
  Hb: 14.1 g/dL
  Ht: 41.5%
  Lym: 79.6%
  MCH: 21.1 pg
  MCHC: 34.1%
  MCV: 62 fL
  Mono: 5.2%
  Neu: 14.2%
  PT: 11.2 s
  Plat: 133.9 x10_4/uL
  RBC: 669.2 x10_4/ul
  Ret: 5.7%
  WBC: 101.8 x10_2/uL
  KIDNEY_L: 1.1 g
  KIDNEY_R: 1.1 g
  KIDNEY_TOTAL: 2.2 g
  LIVER: 12.6 g
  A/G: 2.3
  ALP: 771.4 IU/L
  ALT: 33.2 IU/L
  AST: 63.4 IU/L
  BUN: 20.8 mg/dL
  CRE: 0.5 mg/dL
  Ca: 10.6 mg/dL
  Cl: 104.6 meq/L
  DBIL: 0 mg/dL
  GLC: 197 mg/dL
  IP: 8.1 mg/dL
  K: 4.7 meq/L
  LDH: 95 IU/L
  Na: 141.6 meq/L
  PL: 158.2 mg/dL
  RALB: 4.1 g/dL
  TBIL: 0.4 mg/dL
  TC: 76.2 mg/dL
  TG: 156.4 mg/dL
  TP: 5.8 g/dL
  gamma-GTP: 1.4 IU/L
[7]
  TERMINAL_BW: 307 g
  APTT: 16.7 s
  Bas: 0%
  Eos: 1%
  Fbg: 217.6 mg/dL
  Hb: 15 g/dL
  Ht: 43.7%
  Lym: 80.6%
  MCH: 20.2 pg
  MCHC: 34.3%
  MCV: 58.9 fL
  Mono: 5.6%
  Neu: 12.8%
  PT: 11.3 s
  Plat: 127.7 x10_4/uL
  RBC: 742.4 x10_4/ul
  Ret: 4.2%
  WBC: 122.9 x10_2/uL
  KIDNEY_L: 1.2 g
  KIDNEY_R: 1.2 g
  KIDNEY_TOTAL: 2.3 g
  LIVER: 13.1 g
  A/G: 2
  ALP: 804.6 IU/L
  ALT: 36 IU/L
  AST: 59.2 IU/L
  BUN: 19.2 mg/dL
  CRE: 0.5 mg/dL
  Ca: 11 mg/dL
  Cl: 105.2 meq/L
  DBIL: 0.028 mg/dL
  GLC: 207.4 mg/dL
  IP: 7.4 mg/dL
  K: 4.2 meq/L
  LDH: 103.2 IU/L
  Na: 142.2 meq/L
  PL: 150.8 mg/dL
  RALB: 3.9 g/dL
  TBIL: 0.4 mg/dL
  TC: 73 mg/dL
  TG: 116.8 mg/dL
  TP: 5.9 g/dL
  gamma-GTP: 0.6 IU/L
[8]
  TERMINAL_BW: 352 g
  APTT: 17.2 s
  Bas: 0%
  Eos: 1.6%
  Fbg: 212 mg/dL
  Hb: 15.7 g/dL
  Ht: 46.9%
  Lym: 80.4%
  MCH: 18.8 pg
  MCHC: 33.6%
  MCV: 55.9 fL
  Mono: 6%
  Neu: 12.4%
  PT: 11.3 s
  Plat: 126.5 x10_4/uL
  RBC: 839 x10_4/ul
  Ret: 7.1%
  WBC: 104.7 x10_2/uL
  KIDNEY_L: 1.3 g
  KIDNEY_R: 1.3 g
  KIDNEY_TOTAL: 2.6 g
  LIVER: 13.5 g
  A/G: 1.6
  ALP: 710 IU/L
  ALT: 30.2 IU/L
  AST: 64 IU/L
  BUN: 20 mg/dL
  CRE: 0.6 mg/dL
  Ca: 10.4 mg/dL
  Cl: 107 meq/L
  DBIL: 0.002 mg/dL
  GLC: 205.6 mg/dL
  IP: 6.4 mg/dL
  K: 4.3 meq/L
  LDH: 96.4 IU/L
  Na: 140.4 meq/L
  PL: 141.4 mg/dL
  RALB: 3.8 g/dL
  TBIL: 0.3 mg/dL
  TC: 69.4 mg/dL
  TG: 113.6 mg/dL
  TP: 6.1 g/dL
  gamma-GTP: 1.4 IU/L
